The results in this text go back to patent publication US9155774B2, “Scaffold-kinase interaction blockades and uses thereof in treating cancer” (THE BOARD OF TRUSTEES OF THE LELAND STANFORD JUNIOR …, priority 2011, dated 2015).

Entries after “also recorded” stand apart in the source; their conditions may differ.

Series [1] has as its system normal human organotypic tissue expressing LacZ.
Text: (§4) Human Tissue Model System. Dermis can be ordered from National Disease Research Interchange (NDRI) and New York Firefighter Skin Bank. Tissue is inspected for overall thickness as well as continuity across the spectrum. Pieces with less hair follicles are preferable. This tissue is cultures in a mixture of antibiotics and antimyotics for a period of 10-14 days. Subsequently, the epidermis is peeled off. The devitalized dermis is then ready to be repopulated with 2-4×10^5 neonatal human fibroblasts by low speed centrifugation for 1 hour. Tissue is raised to the air-liquid interface and seeded with 0.5-1×10^6 genetically modified human keratinocytes to stimulate differentiation and stratification (Ridky, T. W., et al. Invasive three-dimensional organotypic neoplasia from multiple normal human epithelia. Nat Med 16, 1450-1456 (2010); PrunieRAS, M., et al. Methods for cultivation of keratinocytes with an air-liquid interface. J Invest Dermatol 81, 28-33 (1983)). Tissue was treated with drug/peptide as indicated by application directly into culture media daily. Tissue was grown for five to ten days total. For immunofluorescence analysis, tissue was placed in OCT. For histological analysis, tissue was fixed in 10% formalin (Sigma-Aldrich) and embedded in paraffin.
(§5) Immunofluorescence and Invasion index. OCT embedded tissue samples were cut into 7 um sections then fixed and permeabilized by incubation in ice-cold methanol or acetone for 10 minutes at −20° C. followed by blocking in 10% horse serum in PBS for 1 hour. Tissue sections were then incubated with primary antibodies, followed by Alexafluor-488 conjugated or Alexafluor-555 conjugated, goat anti-mouse or goat anti-rabbit secondary antibodies (Molecular Probes). The following antibodies were used: rabbit anti-keratin-5 (1:4000, Covance, PRB-160P), mouse anti-collagen VII (1:200, Millipore, MAB2500), anti-mouse Keratin 10 (1:200, Neomarkers, MS611P), anti-mouse Transglutaminase (1:100, Biomedical Technology, BT-621), anti-rabbit Loricrin (1:200, Covance, PRB-145P), and anti-rabbit Ki67 (1:100, Neomarkers, SP6). Tissue was counterstained with Hoescht to visualize cell nuclei. Microscopy was performed on an Olympus FV1000 scanning laser confocal microscope. For each sample, 30 sequential Z-sections were taken in 3 channels (DAPI—405/450 nm excitation/emission, FITC-488/512 ex/em and TRITC-540/570 ex/em) allowing for subsequent three-dimensional reconstruction analysis. […] Relative invasion index was quantified as number of keratin-positive epithelial cells below the collagen-positive basement membrane zone (BMZ) measured 10 times across 3 independent 20× fields of view. Ki67 quantification was quantified as number of Ki67-positive epithelial cells measured 10 times across 3 independent 20× fields of view. […]
In series [2] the test system is H-RAS^G12V/IκBαM organotypic human tissue. Nature of the series: Organotypic human tissue model of RAS-driven neoplastic invasion. The series is classed as cell-based. The method, then: (§1) Retroviral Transduction. […] Alternatively transformation was achieved through combined infection with an LTR-driven retrovirus expressing oncogenic ER:H-RAS and a separate LTR-driven retrovirus expressing cyclin-dependent kinase 4 (CDK4). Polybrene was added to a final concentration of 5 ug/mL to cell media during infection. Infections were performed at 37° C. with low-speed centrifugation for 1 hour. Expression of these viral constructs was verified in vitro. […] As a control for a RAS-IκBα bicistronic virus (IIR), we also infected a separate pool of keratinocytes with a LacZ control virus. For dual ER:H-RAS and CDK4 infected cells, forty-eight hours after infection cultures were daily treated with either […] 40 hydroxytamoxifen or an equal volume of ethanol (vehicle).
(§2) Human Tissue Model System. […] Pieces with less hair follicles are preferable. […] Subsequently, the epidermis is peeled off. […] Tissue was grown for five to ten days total. For immunofluorescence analysis, tissue was placed in OCT.
(§3) Immunofluorescence and Invasion index. […] Tissue was counterstained with Hoescht to visualize cell nuclei.
Hum Gene Ther 8, 1659-1665 (1997)).

The subject of series [3] is IQGAP1. Nature of the series: qRT-PCR validation of IQGAP1 knockdown. Type of series: cell-based, human. To be noted: two, four and six days post-nucleofection. An excerpt:
siRNA-mediated knockdown. For each ERK/MAPK scaffold, siRNA oligos were designed and synthesized by Dharmacon. Subsequently, 1×10^6 early-passage neonatal keratinocytes were electroporated with 2 nMol of each siRNA oligo or 1 nMol each of two siRNA oligos using Amaxa nucleofection reagents and according to the manufacturer's protocol. A nonfunctional siRNA served as a negative control and ERK1/2 siRNA served as positive controls. The following siRNA oligos were used for this study (sense/antisense):
shRNA-mediated knockdown. The vectors for pGIPZ shRNA targeting IQGAP1 were designed and purchased through Open Biosystems catalog number V2LHS-86779 for shIQGAP1.E, V2LHS-86781 for shIQGAP1.F, and V2LHS-259635 for shIQGAP1.G. Cells were transduced as above with 1000× puromycin (1 mg/mL) selection applied daily. Transduction of cells was visualized under a fluorescent microscope
qRT-PCR Expression Analysis. At indicated time points, RNA was harvested from cells via treatment with TRIZOL by the standard Invitrogen protocol. Relative mRNA expression was determined by qRT-PCR analysis using a Stratagene Mx3000P thermocycler and Brilliant II SYBR green QRT-PCR 1-step master mix reagents. Primer concentration was 200 nM with 100 ng RNA. Samples were run in triplicate and normalized to levels of GAPDH mRNA for each reaction. The following primers were used for this study: […]
For orientation: Real-time PCR tracks product formation cycle by cycle.

Series [4] concerns normal human organotypic tissue expressing LacZ. Nature of the series: Normal organotypic human tissue homeostasis. As to conditions: drug daily, same concentrations as in neoplastic tissue (UO126 5 μM).
Text: as §4, §5
In series [5] the test system is Ras-driven organotypic human epidermal neoplasia. Nature of the series: Ras-driven organotypic human epidermal neoplasia (ER:H-RAS/CDK4, 4OHT) invasion. The series is classed as cell-based. As to conditions: peptide 10 uM daily in media vs scrambled control peptide. The method, then:
as §1, §2, §3
Exogenous delivery of the WW domain to human tissue. […] Briefly stromal primary human fibroblasts were seeded onto devitalized human dermis and subsequently elevated to a sterilized annular dermal support (ADS) tissue culture insert device (Ridky, supra). […]

Series [6] concerns SK-MeI-28 melanoma xenograft tumors. Nature of the series: Systemic delivery of WW peptide in vivo by osmotic pump. As to conditions: subcutaneous osmotic pump, 19 mg/kg/day for 14 days. The method, then:
(A) Established xenograft tumors derived from BRAFV600E mutant SK-MeI-28 melanoma cancer cells were subcutaneously implanted with osmotic pumps (Alzet model 2002) (indicated by black arrows) which released 19 mg/kg/day of R8-myc-tagged Scrambled or WW peptide for 14 days (indicated by hash bars) with tumor growth quantified by mean average radiance (n=3 mice per group). […] (D) Representative data of tumor growth as quantified by tumor volume±SEM from d28 and d43.
Systemic delivery of WW peptide in vivo. 0.5×10^6 luciferase-expressing SK-MeI-28 were injected into the subcutaneous space of hairless immunodeficient 6-8 week old SCID mice (SHO stock, Charles Rovers). Mouse xenografts were allowed to grow untreated for 1 week. Subsequently, tumors were measured and randomized two groups of similar tumor size. Each group was subcutaneously implanted with osmotic pumps (Alzet, model 2002) releasing 0.5 uL of R8-myc-tagged scrambled or WW peptide per hour for 14 days.
To test the efficacy of systemic delivery of WW peptide in vivo, 0.5×10^6 luciferase-expressing SK-MeI-28 were injected into the subcutaneous space of hairless immunodeficient 6-8 week old SCID mice (SHO stock, Charles Rovers). Mouse xenografts were allowed to grow untreated for 1 week. Subsequently, tumors were measured and randomized two groups of similar tumor size. Each group was subcutaneously implanted with osmotic pumps (Alzet, model 2002) releasing 0.5 uL of scrambled or WW peptide per hour for 14 days.

Series [7] relates to PLX-4032 sensitive BRAFV600E melanoma cell lines (SK-MeI-28, A375, SK-MeI-5). Nature of the series: Proliferation of PLX-4032 sensitive melanoma lines with peptide. The series is classed as cell-based, human. As to conditions: increasing doses of R8-myc-tagged WW peptide. The method, then:
(A) Proliferation of PLX-4032 sensitive BRAFV600E melanoma cell lines (P1, SK-MeI-28; P2, A375; and P3, SK-MeI-5) at increasing doses of R8-myc-tagged WW peptide. (B) Proliferation assays of PLX-4032 resistant lines (R1, SK-MeI-28; R2, A375; and R3, SK-MeI-5) treated with 5 μM R8-myc-tagged SCR peptide and DMSO (control), 5 μM SCR peptide and 5 μM PLX-4032 (PLX-4032), or 5 μM R8-myc-tagged WW peptide and DMSO (5 μM WW).
Cell Viability Assay. Genetically modified adherent cancer cell lines were seeded in equivalent, low density cultures in duplicate to 24-well plates. 24 hours post-seeding, media was removed and replaced with 500 uL of a 5:1 mixture of cell media and cell titre blue reagent (Promega). Cultures were incubated with this mixture for 2 hours at 37° C. in the dark. Fluorescence ([…]) for 100 uL in triplicates of each sample was recorded. Incubation with cell titre blue reagent and fluorescent readings were repeated every two days for a total of twelve days. Values plotted correspond to readings taken while control samples are still growing exponentially.

The subject of series [8] is PLX-4032 resistant BRAFV600E melanoma lines (SK-MeI-28, A375, SK-MeI-5). Nature of the series: Proliferation of PLX-4032 resistant melanoma lines. Type of series: cell-based, human. As to conditions: 5 μM R8-myc-tagged WW peptide and DMSO.
The subject of series [9] is IQGAP1-Erk1/2 interaction. Nature of the series: Immunoprecipitation of endogenous IQGAP1 protein and associated Erk. Type of series: cell-based, human. To be noted: 10 μM peptide daily for six days, SK-MeI-28 cells. The method, then:
(A) Immunoprecipitation of endogenous IQGAP1 protein and associated Erk from primary human cells (normal) or BRAFV600E mutant SK-MeI-28 melanoma cells (cancer) following daily treatment with 10 μM R8-myc-tagged SCR or WW peptide for six days. (B) Relative Erk levels as a function of immunoprecipitated IQGAP1 as in (d). n=3, ±SD.
Immunoprecipitation of endogenous IQGAP1 protein and associated Erk. Cells were cross-linked with 1 mL of 20 mM DSP (Thermo Scientific) for 1 hour at 4° C. and the reaction was stopped with washes in 50 mM Tris. Cells were lysed in 20 mM Tris, 150 mM NaCl, 0.2% NP40, 10% Glycerol with 0.5 mM dTT and protease/phosphatase inhibitors added directly before use (buffer 1) for 1 hour at 4° C., but not pelleted. 1 mg lysate in 500 uL was combined with 5 ug of mouse anti-IQGAP1 antibody (Millipore 05-504) in buffer 1 and rocked overnight at 4° C. 30 uL of protein G sepharose 4 fast flow (GE Healthcare) were washed in buffer 1 and combined with lysate for 1 hour at 4° C. Supernatent was removed to check for immunodepletion. Beads were washed 3 times in 20 mM Tris, 150 mM NaCl, 1% Triton X-100 with protease/phosphatase inhibitors added directly before use (buffer 2). Immunoprecipitate was eluted from beads in 200 uL of 4×LDS sample buffer in buffer 1 plus 5% BME. […]

The subject of series [10] is ERK. Nature of the series: Protein expression analysis of phosphorylated and total ERK (immunoblot / immunohistochemistry). Type of series: cell-based, human. To be noted: Ras-driven organotypic neoplasia, peptide 10 uM daily. The method, then:
Protein Expression Analysis. Cells were lysed in 20 mM Tris (pH 7.5), 150 mM NaCl, 1 mM EDTA, and 1% NP40 supplemented with complete mini EDTA-free protease inhibitors (Roche) and phosphatase inhibitor cocktails I and II (Sigma-Aldrich). 5-20 ug of lysate were loaded per lane, subjected to 10-12% SDS-PAGE or 16% Tricine electrophoresus (Invitrogen NuPage), and subsequently transfer to PVDF membranes via semidry transfer. Primary antibody incubations were performed overnight at 4° C. Secondary antibody incubations were for 1 hour at room temperature. The following antibodies were used: rabbit anti-ERK1/2 (1:1000, Cell Signaling, 9201), rabbit anti-phosphorylated ERK1/2 (1:1000, Thr202/Tyr204, Cell Signaling, 9201), mouse anti-IQGAP1 (1:400, Upstate, 05-504), rabbit anti-RAS (1:500, Santa Cruz, sc-520), rabbit anti-IκBa (1:500, Cell Signaling, 9242), Rabbit anti-β-Galactosidase (1:1000, Cappel, 55976), rabbit anti myc (1:500, Abcam, ab9106), mouse anti-actin (1:10,000, Sigma, 5316), donkey anti-rabbit IgG conjugated to horseradish peroxidase (HRP)(1:20,000, Amersham Biosciences), and donkey anti-mouse IgG conjugated to horseradish peroxidase (HRP)(1:20,000, Amersham Biosciences).

The mark [11] stands for this setting: siRNA-nucleofected keratinocytes.
Setting [12] is: drug daily in culture media: UO126 5 μM, SB0203580 2.6 μM, PD98059 18.7 μM, LY294002 5 μM.

With “siIQGAP1.B: siRNA to 3′ UTR of IQGAP1, SEQ ID NO: 13/14 (chain 1 CCUCUCGCUCUGAUGGGACAUUUGU; chain 2 ACAAAUGUCCCAUCAGAGCGAGAGG; chemistry not given here)”, in series [1], the normal tissue phenotype result is listed as “phenotypically normal tissue”. Also, the neoplastic invasion result in [2] (setting [11]) is listed as “no invasion”. Moreover, the “durability of IQGAP1 knockdown” value in series [3] was “more durable knockdown”.
As to “siIQGAP1.A: siRNA to coding sequence of IQGAP1, SEQ ID NO: 11/12 (chain 1 GAACGUGGCUUAUGAGUACUU; chain 2 GUACUCAUAAGCCACGUUCUU; chemistry not given here)”, the normal tissue phenotype result in series [1] was “phenotypically normal tissue”. Also, the neoplastic invasion result in series [2] (setting [11]) was “no invasion”.
Turning to `COc1cccc(-c2cc(=O)c3ccccc3o2)c1N` [PD098059], in series [2] (setting [12]), the neoplastic invasion result is listed as “did not have an abrogating effect on neoplastic invasion; also recorded: did not block invasion”.
Consider `N#CC(=C(/N)Sc1ccccc1N)/C(C#N)=C(/N)Sc1ccccc1N` [UO126], for which the normal tissue homeostasis entry in [4] was “without affecting normal tissue homeostasis”.
For the compound “WW peptide: 32 amino acid IQGAP1 WW domain peptide, myc-tagged, made cell penetrating by adding eight arginine residues (RRRRRRRREQKLISEEDLDNNSKWVKHWVKGGYYYYHNLETQEGGWDEPP)”, in series [5], the BMZ degradation entry is reported as “abrogated BMZ degradation” and the neoplastic invasion result is “abolished neoplastic invasion; also recorded: inhibits neoplastic invasion”. Also, in series [6], the “toxic effects to animals” value was “without adverse toxic effects to animals” and the “weight gain of mice” value is on record as “no negative effects on mouse growth”. Also, the “tumorigenesis / tumor growth” value in series [6] (19 mg/kg/day) was “diminishes tumorigenesis; also recorded: can inhibit tumorigenesis”. In series [7], the “proliferation of BRAF mutant melanoma cells” value is recorded as “inhibited proliferation of BRAF mutant melanoma cells in a dose-dependent manner”. The “growth of PLX-4032-resistant melanoma cells” value in [8] was “inhibited growth of PLX-4032-resistant melanoma cells similarly to PLX-4032-sensitive parental cells; also recorded: bypasses resistance to B-Raf inhibitors”. Besides, the “total Erk1/2 bound to endogenous IQGAP1” value in series [9] is “significantly decreased”. The pErk1/2 levels entry in series [10] is given as “diminished pErk1/2 levels”.
In the case of “siIQGAP1.C: siRNA to 3′ UTR of IQGAP1, SEQ ID NO: 15/16 (chain 1 CAGCCAUCAUGACAUUUACCAUGAA; chain 2 UUCAUGGUAAAUGUCAUGAUGGCUG; chemistry not given here)”, the normal tissue phenotype result in series [1] is given as “phenotypically normal tissue”. Moreover, in series [2] (setting [11]), the neoplastic invasion entry is reported as “no invasion”. In series [3], the “durability of IQGAP1 knockdown” value is “more durable knockdown”.
For `C[S+]([O-])c1ccc(-c2nc(-c3ccncc3)c(-c3ccc(F)cc3)[nH]2)cc1` (centres unmarked) [SB203580], the neoplastic invasion entry in series [2] (setting [12]) is recorded as “did not completely block invasion; also recorded: did not see effects”.
